Columns and labels:
G2019S LRRK2 = target: T1, G2019S LRRK2 (Homo sapiens, UniProt Q5S007, G2019S); assay: LRRK2 degradation HiBit assay, G2019S LRRK2 tagged with a HiBit tag expressed in HEK293 cells; type: cell-based; conditions: 24 hours compound incubation; for Dmax: HEK293, HEK293 cells; for DC50: HEK293 cells
T1 construct: expressed in transfected cells; host or cells: HEK293 (ATCC CRL-1573)
Procedure: (§1) The assay measures the degradation of wildtype and G2019S LRRK2 tagged with a HiBit tag on the C-terminus of the protein that was expressed from a mammalian expression vector, driven by the ubiquitin promoter in HEK293 cells. Each compound dose-response was repeated on three separate days, on three separate plates each day.
(§2) Plasmid Preparation. Transfection mixes were assembled as follows and incubated for 30 minutes at room temperature. In a 15 mL tube, 5.25 mL Opti-MEM (no additions) was mixed with 17 μL Firefly Luciferase plasmid at 1 μg/μL and 158 μL WT plasmid DNA at 1 μg/μL (175 μg total DNA) were mixed by flicking. In a new 15 mL tube, 5.25 mL OptiMEM was mixed with 17 μL Firefly Luciferase plasmid at 1 μg/μL and 158 μL G2019S plasmid DNA at 1 μg/μL (175 μg total DNA) were mixed by flicking. X-tremeGene HP was mixed thoroughly using a vortex. Next, 175 μL was added to each tube and flicked to mix. Both tubes were left to incubate for 30 minutes at room temperature.
While the transfection mixes were incubating, HEK293 cells acquired from ATCC (ATCC CRL-1573) were harvested with trypsin. Once cells are detached, the cells were resuspended in 12 mL OptiMEM+5% FBS and transferred to a 50 mL tube. The cells were mixed well and counted. Using OptiMEM+5% FBS, the cells were diluted in two 250 mL conical tubes at 0.71×10^6 cells/mL in 70 mL. One tube was labeled “WT” and the other “G2019S”. The WT and G2019S transfection mixes were added dropwise to the corresponding 250 mL tubes. The tubes were mixed first by pipetting then by swirling. The tubes were incubated at room temperature for at least 5 minutes.
(§3) Each tube was swirled before dispensing and after every three plates. Seventy microliters of cells were dispensed with WT or G2019S DNA to seven plates each. Three plates of each were tested with compound plate one (preparation described below) and three plates of each were tested with compound plate two (preparation described below). The first plate from each set served as a “prime” plate and was not used to test compounds. Each plate was incubated in the hood for 10 minutes before placing in the 37° C. incubator for 24 hours.
(§4) Preparation of Compound and Assay Plates. Two compound plates were made using 96 well polypropylene plates. Compounds were made up at 10 mM and were diluted to 1 mM in 30 μL. Each dose response curve included a well of DMSO, as a negative control and for normalization, and a well of 0.5 μM of Exemplary Compound 4 as a positive control. In addition to seven test compounds, each plate also included a dose response of Exemplary Compound 4. The compound plates were spun down along at 1200 rpm for 2 minutes.
(§5) The two compound plates were then mixed and 2 μL was diluted in intermediate plates having 248 μL of Opti-Mem in each well. Next, 10 μL diluted compounds from the intermediate plates were added to each test plate (three WT and three G2019S plates per compound plate for a total of 12 assay plates). The plates were incubated for 24 hours at 37° C.
(§6) All assay plates and all Nano-Glo Dual-Luciferase Reporter Assay System components (except for the DLR substrate) were equilibrated to room temperature. Next, the luciferase buffer was mixed with the lyophilized amber bottle until fully dissolved, and 75 μL of the luciferase mixture was added to each well of each assay plate. The assay plates were incubated for 10 minutes at room temperature with shaking for at least 5 minutes, and then read on a plate reader.
(§7) Developing Plates and Analyzing Data. One milliliter of DLR substrate and 1 mL LgBiT Protein were added to the Stop and Glo buffer, and 75 μL of the mixture was added to each well of each plate. Optically clear seals were added to each plate and each plate was incubated for 20 minutes with shaking for at least 10 minutes, and then read on a plate reader. […]

wildtype LRRK2 = target: T2, wildtype LRRK2 (Homo sapiens, UniProt Q5S007); assay: LRRK2 degradation HiBit assay, wildtype LRRK2 tagged with a HiBit tag in HEK293 cells; type: cell-based; conditions: 24 hours compound incubation; for DC50: read-out: *WT DC50; for Dmax: read-out: ** WT Dmax (%)
T2 construct: endogenous in cells; host or cells: HEK293 with HiBit knocked in at the 3' end of the endogenous LRRK2 gene, stably expressing firefly luciferase
Procedure: as §1, with “repeated on two separate days,” for “repeated on three separate days,”
as §2
While the transfection mixes were incubating, HEK293 cells (acquired from ATCC; ATCC CRL-1573) were harvested with trypsin. Once cells are detached, the cells were resuspended in 12 mL OptiMEM+5% FBS and transferred to a 50 mL tube. The cells were mixed well and counted. Using OptiMEM+5% FBS, the cells were diluted in two 250 mL conical tubes at 0.71×10^6 cells/mL in 70 mL. One tube was labeled “WT” and the other “G2019S”. The WT and G2019S transfection mixes were added dropwise to the corresponding 250 mL tubes. The tubes were mixed first by pipetting then by swirling. The tubes were incubated at room temperature for at least 5 minutes.
as §3, §4, §5, §6, §7

T2 sequence (Q5S007 whole entry): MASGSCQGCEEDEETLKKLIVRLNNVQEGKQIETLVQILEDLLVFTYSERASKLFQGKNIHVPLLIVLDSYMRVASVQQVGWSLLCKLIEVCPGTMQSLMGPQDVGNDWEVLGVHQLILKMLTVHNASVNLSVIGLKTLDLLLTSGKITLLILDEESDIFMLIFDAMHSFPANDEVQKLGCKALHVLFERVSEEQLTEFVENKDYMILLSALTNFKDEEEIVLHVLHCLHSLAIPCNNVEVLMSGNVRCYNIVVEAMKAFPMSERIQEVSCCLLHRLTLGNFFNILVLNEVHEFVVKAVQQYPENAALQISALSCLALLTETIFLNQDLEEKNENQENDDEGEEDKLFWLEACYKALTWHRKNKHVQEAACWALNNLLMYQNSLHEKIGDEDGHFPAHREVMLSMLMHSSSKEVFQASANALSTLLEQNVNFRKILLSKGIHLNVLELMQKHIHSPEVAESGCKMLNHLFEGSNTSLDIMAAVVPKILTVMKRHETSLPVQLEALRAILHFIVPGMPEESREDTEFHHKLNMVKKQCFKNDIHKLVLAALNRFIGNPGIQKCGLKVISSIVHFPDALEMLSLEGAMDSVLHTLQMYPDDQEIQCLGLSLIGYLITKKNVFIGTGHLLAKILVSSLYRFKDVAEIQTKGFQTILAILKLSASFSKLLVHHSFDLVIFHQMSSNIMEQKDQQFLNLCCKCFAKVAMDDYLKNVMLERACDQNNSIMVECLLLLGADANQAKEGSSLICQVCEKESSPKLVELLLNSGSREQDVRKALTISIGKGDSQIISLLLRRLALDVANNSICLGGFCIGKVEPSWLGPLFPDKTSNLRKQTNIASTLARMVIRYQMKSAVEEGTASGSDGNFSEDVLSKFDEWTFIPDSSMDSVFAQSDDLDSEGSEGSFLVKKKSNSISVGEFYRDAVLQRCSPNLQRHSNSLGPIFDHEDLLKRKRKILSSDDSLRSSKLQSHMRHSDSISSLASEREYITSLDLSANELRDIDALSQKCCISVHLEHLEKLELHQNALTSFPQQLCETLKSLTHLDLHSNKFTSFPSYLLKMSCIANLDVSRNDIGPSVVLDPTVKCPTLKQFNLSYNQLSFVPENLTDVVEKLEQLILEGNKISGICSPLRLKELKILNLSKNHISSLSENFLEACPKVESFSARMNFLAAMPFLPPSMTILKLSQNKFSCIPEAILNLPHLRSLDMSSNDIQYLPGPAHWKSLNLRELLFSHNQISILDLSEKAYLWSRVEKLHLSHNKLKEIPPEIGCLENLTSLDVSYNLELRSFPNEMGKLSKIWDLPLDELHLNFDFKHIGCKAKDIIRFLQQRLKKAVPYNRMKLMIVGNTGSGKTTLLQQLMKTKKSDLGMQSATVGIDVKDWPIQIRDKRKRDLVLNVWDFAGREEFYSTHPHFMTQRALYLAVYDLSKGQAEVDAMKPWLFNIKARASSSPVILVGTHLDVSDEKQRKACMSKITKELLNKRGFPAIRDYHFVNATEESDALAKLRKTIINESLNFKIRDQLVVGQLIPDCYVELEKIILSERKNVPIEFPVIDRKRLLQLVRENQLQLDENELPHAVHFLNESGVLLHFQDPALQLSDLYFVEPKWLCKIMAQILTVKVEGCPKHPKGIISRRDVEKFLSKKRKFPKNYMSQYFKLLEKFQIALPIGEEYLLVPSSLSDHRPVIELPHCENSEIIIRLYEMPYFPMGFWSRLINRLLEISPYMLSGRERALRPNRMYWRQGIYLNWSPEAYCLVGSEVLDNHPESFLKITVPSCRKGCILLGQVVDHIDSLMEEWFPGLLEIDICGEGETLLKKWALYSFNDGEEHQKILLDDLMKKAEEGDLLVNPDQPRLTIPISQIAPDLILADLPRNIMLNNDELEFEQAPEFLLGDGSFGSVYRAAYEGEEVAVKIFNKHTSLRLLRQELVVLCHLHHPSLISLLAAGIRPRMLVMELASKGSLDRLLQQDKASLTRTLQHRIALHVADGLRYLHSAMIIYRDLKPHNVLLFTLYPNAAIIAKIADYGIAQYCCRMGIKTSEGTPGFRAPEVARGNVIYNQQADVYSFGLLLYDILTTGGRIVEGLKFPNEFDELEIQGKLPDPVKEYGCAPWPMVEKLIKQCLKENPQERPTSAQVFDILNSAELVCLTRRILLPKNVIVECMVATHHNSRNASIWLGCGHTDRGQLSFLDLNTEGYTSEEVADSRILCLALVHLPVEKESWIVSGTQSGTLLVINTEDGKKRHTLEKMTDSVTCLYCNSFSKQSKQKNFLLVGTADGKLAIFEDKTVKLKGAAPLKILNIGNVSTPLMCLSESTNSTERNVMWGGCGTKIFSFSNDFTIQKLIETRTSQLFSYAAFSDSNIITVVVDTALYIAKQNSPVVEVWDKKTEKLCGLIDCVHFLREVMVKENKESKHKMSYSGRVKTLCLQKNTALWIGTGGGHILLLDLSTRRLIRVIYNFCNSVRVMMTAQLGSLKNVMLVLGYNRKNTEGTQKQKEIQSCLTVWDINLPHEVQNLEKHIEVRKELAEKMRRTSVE
T1 sequence (Q5S007 whole entry G2019S): as the sequence (Q5S007 whole entry) above, with G2019S counted along it

SMILES | Dmax (G2019S LRRK2) [%] | DC50 (G2019S LRRK2) [nM] | DC50 (wildtype LRRK2) [nM] | Dmax (wildtype LRRK2) [%]
CC1=C(C(=O)Nc2ccc3[nH]nc(-c4ccnc(N5C[C@@H](C)N(CC6CCN(CC7CCN(c8ccc9c(c8)C(=O)N(C8CCC(=O)NC8=O)C9=O)CC7)CC6)[C@@H](C)C5)c4)c3c2)Cn2nnnc2N1C (stereo partly drawn) [compound 1, N-(3-(2-((3S,5R)-4-((1-((1-(2-(2,6-dioxopiperidin-3-yl)-1,3-dioxoisoindolin-5-yl)piperidin-4-yl)methyl)piperidin-4-yl)methyl)-3,5-dimethylpiperazin-1-yl)pyridin-4-yl)-1H-indazol-5-yl)-4,5-dimethyl-4,7-dihydrotetrazolo[1,5-a]pyrimidine-6-carboxamide] | 50 to 70 | < 10 | 10 to 50 | 50 to 70
CC1=C(C(=O)Nc2ccc3[nH]nc(-c4ccnc(N5CCN(CC6CCN(CC7CCN(c8ccc9c(c8)C(=O)N(C8CCC(=O)NC8=O)C9=O)CC7)CC6)[C@@H](C)C5)c4)c3c2)[C@H](C)n2nnnc2N1C (single isomer, unassigned) [compound 9] | 50 to 70 | 50 to 100 | ≥ 100 | < 50
CC1=C(C(=O)Nc2ccc3[nH]nc(-c4ccnc(N5CCN(CC6CN(CC7CCN(c8ccc9c(c8)C(=O)N(C8CCC(=O)NC8=O)C9=O)CC7)C6)CC5)c4)c3c2)[C@@H](C)n2nnnc2N1C (stereo partly drawn) [compound 17, (7R)-N-(3-(2-(4-((1-((1-(2-(2,6-dioxopiperidin-3-yl)-1,3-dioxoisoindolin-5-yl)piperidin-4-yl)methyl)azetidin-3-yl)methyl)piperazin-1-yl)pyridin-4-yl)-1H-indazol-5-yl)-4,5,7-trimethyl-4,7-dihydrotetrazolo[1,5-a]pyrimidine-6-carboxamide] | 50 to 70 | 50 to 100 | ≥ 100 | 50 to 70
CC1=C(C(=O)Nc2ccc3[nH]nc(-c4ccnc(N5CCN(CC6CCN(CC7CCN(c8ccc9c(c8)C(=O)N(C8CCC(=O)NC8=O)C9=O)CC7)CC6)CC5)c4)c3c2)[C@H](C)n2nnnc2N1C (stereo partly drawn) [compound 12, (7S)-N-(3-(2-(4-((1-((1-(2-(2,6-dioxopiperidin-3-yl)-1,3-dioxoisoindolin-5-yl)piperidin-4-yl)methyl)piperidin-4-yl)methyl)piperazin-1-yl)pyridin-4-yl)-1H-indazol-5-yl)-4,5,7-trimethyl-4,7-dihydrotetrazolo[1,5-a]pyrimidine-6-carboxamide] | < 50 | ≥ 100 | ≥ 100 | –

The remaining lines, values ahead:

Dmax (G2019S LRRK2) [%] | DC50 (G2019S LRRK2) [nM] | DC50 (wildtype LRRK2) [nM] | Dmax (wildtype LRRK2) [%] | SMILES
< 50 | 10 to 50 | ≥ 100 | – | CC1=C(C(=O)Nc2ccc3[nH]nc(-c4ccnc(N5CCN(CC6CCN(CC7CCN(c8ccc9c(c8)C(=O)N(C8CCC(=O)NC8=O)C9=O)CC7)CC6)[C@@H](C)C5)c4)c3c2)C(C)(C)n2nnnc2N1C (stereo partly drawn) [compound 34, N-(3-{2-[(3S)-4-{[1-({1-[2-(2,6-dioxopiperidin-3-yl)-1,3-dioxo-2,3-dihydro-1H-isoindol-5-yl]piperidin-4-yl}methyl)piperidin-4-yl]methyl}-3-methylpiperazin-1-yl]pyridin-4-yl}-1H-indazol-5-yl)-4,5,7,7-tetramethyl-4H,7H-[1,2,3,4]tetrazolo[1,5-a]pyrimidine-6-carboxamide]
– | ≥ 100 | ≥ 100 | – | CC1=C(C(=O)Nc2ccc3[nH]nc(-c4ccnc(N5CCN(CCOCCN6CC7(C6)CN(c6ccc8c(c6)C(=O)N(C6CCC(=O)NC6=O)C8=O)C7)CC5)c4)c3c2)[C@@H](C)n2nnnc2N1C (stereo partly drawn) [compound 20, (7R)-N-[3-(2-{4-[2-(2-{6-[2-(2,6-dioxopiperidin-3-yl)-1,3-dioxo-2,3-dihydro-1H-isoindol-5-yl]-2,6-diazaspiro[3.3]heptan-2-yl}ethoxy)ethyl]piperazin-1-yl}pyridin-4-yl)-1H-indazol-5-yl]-4,5,7-trimethyl-4H,7H-[1,2,3,4]tetrazolo[1,5-a]pyrimidine-6-carboxamide]
< 50 | 10 to 50 | ≥ 100 | – | CC1=C(C(=O)Nc2ccc3[nH]nc(-c4ccnc(N5CCO[C@@H](CN6CCN(CC7CCN(c8ccc9c(c8)C(=O)N(C8CCC(=O)NC8=O)C9=O)CC7)CC6)C5)c4)c3c2)C(C)(C)n2nnnc2N1C (stereo partly drawn) [compound 32, N-(3-{2-[(2S)-2-{[4-({1-[2-(2,6-dioxopiperidin-3-yl)-1,3-dioxo-2,3-dihydro-1H-isoindol-5-yl]piperidin-4-yl}methyl)piperazin-1-yl]methyl}morpholin-4-yl]pyridin-4-yl}-1H-indazol-5-yl)-4,5,7,7-tetramethyl-4H,7H-[1,2,3,4]tetrazolo[1,5-a]pyrimidine-6-carboxamide]
< 50 | ≥ 100 | ≥ 100 | – | CC1=C(C(=O)Nc2ccc3[nH]nc(-c4ccnc(N5CCN(CCN6CCC(CN7CCN(c8ccc9c(c8)C(=O)N(C8CCC(=O)NC8=O)C9=O)CC7)CC6)[C@@H](C)C5)c4)c3c2)[C@H](C)n2nnnc2N1C (stereo partly drawn) [compound 31, (7S)-N-(3-{2-[(3S)-4-{2-[4-({4-[2-(2,6-dioxopiperidin-3-yl)-1,3-dioxo-2,3-dihydro-1H-isoindol-5-yl]piperazin-1-yl}methyl)piperidin-1-yl]ethyl}-3-methylpiperazin-1-yl]pyridin-4-yl}-1H-indazol-5-yl)-4,5,7-trimethyl-4H,7H-[1,2,3,4]tetrazolo[1,5-a]pyrimidine-6-carboxamide]
< 50 | 10 to 50 | ≥ 100 | < 50 | CC1=C(C(=O)Nc2ccc3[nH]nc(-c4ccnc(N5CCN(CCN6CCN(CC7CCN(c8ccc9c(c8)C(=O)N(C8CCC(=O)NC8=O)C9=O)CC7)CC6)[C@@H](C)C5)c4)c3c2)C(C)(C)n2nnnc2N1C (stereo partly drawn) [compound 30, N-(3-{2-[(3S)-4-{2-[4-({1-[2-(2,6-dioxopiperidin-3-yl)-1,3-dioxo-2,3-dihydro-1H-isoindol-5-yl]piperidin-4-yl}methyl)piperazin-1-yl]ethyl}-3-methylpiperazin-1-yl]pyridin-4-yl}-1H-indazol-5-yl)-4,5,7,7-tetramethyl-4H,7H-[1,2,3,4]tetrazolo[1,5-a]pyrimidine-6-carboxamide]
50 to 70 | 10 to 50 | 10 to 50 | < 50 | CC1=C(C(=O)Nc2ccc3[nH]nc(-c4ccnc(N5CCN(C6CN(CC7CCN(c8ccc9c(c8)C(=O)N(C8CCC(=O)NC8=O)C9=O)CC7)C6)CC5)c4)c3c2)[C@@H](C)n2nnnc2N1C (stereo partly drawn) [compound 24, (7R)-N-[3-(2-{4-[1-({1-[2-(2,6-dioxopiperidin-3-yl)-1,3-dioxo-2,3-dihydro-1H-isoindol-5-yl]piperidin-4-yl}methyl)azetidin-3-yl]piperazin-1-yl}pyridin-4-yl)-1H-indazol-5-yl]-4,5,7-trimethyl-4H,7H-[1,2,3,4]tetrazolo[1,5-a]pyrimidine-6-carboxamide]

Reference: patent US12473294B2, “Selective modulators of mutant LRRK2 proteolysis and associated methods of use” (Arvinas Operations, Inc., priority 2020, dated 2025)
